“And” between values parts separate entries of the source, which are not always exact repeats. Equal values may be shown once. Where a name gives a salt, the structure may show the parent alone.
Tests used:
Ent. cloacae N1 = experiment: in-vitro MIC of amoxycillin alone and with Example 1; format: cell-based; conditions: alone; β-lactamase 1 (inducible expression)
Ent. cloacae P99 = experiment: as above; format: cell-based; conditions: alone; β-lactamase 1 (high constitutive expression)
S. aureus Russell = experiment: as above; format: cell-based; conditions: alone; β-lactamase 2a
E. coli JT39 = experiment: as above; format: cell-based; conditions: alone; β-lactamase 2b (low expression)
JT4 = experiment: as above; format: cell-based, P. coli; conditions: alone; β-lactamase 2b (high expression)
P. mirabilis C889 = experiment: as above; format: cell-based; conditions: alone; β-lactamase 2c
E. coli P91 = experiment: as above; format: cell-based; conditions: alone; β-lactamase 2d
P. vulgaris C = experiment: as above; format: cell-based; conditions: alone; β-lactamase 2e
B. fragilis [1] = experiment: in-vitro MIC of ceftazidime alone and with Example 1; format: cell-based
Text: (§1) The in-vitro synergistic activity of the compound of Example 1 above (i.e sodium (5R)-6-[(Z)-(2,3-dihydroimidazo[2,1-b]thiazol-6-yl) methylene]penem-3-carboxylate) with ceftazidime was investigated.

[2] = test system: strain of Enterobacter producing extended spectrum β-lactamase enzymes; experiment: as above; format: cell-based; conditions: Enterobacter ESBL strain
Text: as §1

E. cloacae = experiment: in vitro selection of ceftazidime-resistant cells in a growing population; format: cell-based
B. fragilis [3] = experiment: in-vitro synergy with cefotaxime; format: cell-based; conditions: 1 μg/ml Example 1
Text: (§2) The in-vitro synergistic activity of the compound of Example 1 above (i.e sodium (5R)-6-[(Z)-(2,3-dihydroimidazo[2,1-b]thiazol- 6-yl)methylene]penem-3-carboxylate) with cefotaxime was investigated.

[4] = test system: strains of Enterobacteriaceae producing extended spectrum β-lactamases; experiment: in-vitro synergy with cefotaxime; format: cell-based; conditions: 1 μg/ml Example 1
Text: as §2

[5] = test system: TEM-3 producing strain of K.pneumoniae; experiment: MIC of cefotaxime, titration with Example 1; format: cell-based; conditions: K.pneumoniae TEM-3
Method: as §2
The MIC (inimum inhibitory concentration) of cefotaxime against one TEM-3 producing strain of K.pneumoniae was measured.

[6] = test system: strain of Ent.cloacae producing high levels of Class 1 β-lactamases constitutively; experiment: MIC of cefotaxime, titration with Example 1; format: cell-based; conditions: in presence of 1 μg/ml Example 1; Ent.cloacae high Class 1
[7] = test system: Enterobacter cloacae (4593) producing high levels of derepressed class (AmpC) β-lactamase; experiment: mouse intraperitoneal infection, cefotaxime CD50; format: in vivo, mice
Method: (§3) In these studies, mice were infected intraperitoneally with a lethal challenge inoculum of strains of either Klebsiella pneumoniae (520), producing extended-spectrum TEM type ββ-lactamase, (TEM-3) or Enterobacter cloacae (4593) producing high levels of derepressed class (AmpC) ββ-lactamase. Virulence of all strains was enhanced by suspending the bacteria in hog gastric mucin prior to infection.
(§4) Mice were dosed subcutaneously at 1 and 5 hours post-infection, with either cefotaxime alone or coadministered with the ββ-lactamase inhibitor at 1 mg/kg or 5 mg/kg.
(§5) 1 CD50 (dose protecting 50% of animals from lethal infection) calculated from groups of 5 animals per test, subjected to a range of 4 dose levels (4-fold serial dilutions)
(§6) Efficacy was assessed by the number of animal surviving at 4 days after infection, and the total dose that protected 50% of treated animals (CD50 value) was calculated.

[8] = test system: Klebsiella pneumoniae (520), producing TEM-3 β-lactamase; experiment: mouse intraperitoneal infection, cefotaxime CD50; format: in vivo, mice
Method: as §3, §4, §5, §6

[9] = test system: Escherichia coli (E96), producing TEM-1 β-lactamase; experiment: mouse intraperitoneal infection, amoxycillin CD50; format: in vivo, mice; conditions: coadministration with Example 1 versus amoxycillin alone
Method: In these studies, mice were infected intrapenitoneally with a lethal challenge inoculum of strains of Escherichia coli (E96), producing TEM-1 ββ-lactamase, for tests to protect amoxycillin. Virulence of all strains was enhanced by suspending the bacteria in hog gastric mucin prior to infection.
Mice were dosed subcutaneously at 1 and 5 hours post-infection, with either amoxycillin alone or coadministered with the ββ-lactamase inhibitor at 2 mg/kg.
as §6

serum half life = conditions: in vivo
[10] = in presence of 1 μg/ml Example 1

CC1(C)S[C@@H]2[C@H](NC(=O)[C@H](N)c3ccc(O)cc3)C(=O)N2[C@H]1C(=O)O [Amoxycillin, 6-[D(−)-α-amino-p-hydroxypheny-acetamido]penicillanic acid]
Amoxycillin MIC (Ent. cloacae N1): > 256 µg/mL | Amoxycillin MIC (Ent. cloacae P99): > 256 µg/mL | Amoxycillin MIC (S. aureus Russell): 128 µg/mL | Amoxycillin MIC (E. coli JT39): > 256 µg/mL | Amoxycillin MIC (JT4): > 256 µg/mL | Amoxycillin MIC (P. mirabilis C889): > 256 µg/mL | Amoxycillin MIC (E. coli P91): > 256 µg/mL | Amoxycillin MIC (P. vulgaris C): 32 µg/mL

CC(C)(O/N=C(\C(=O)N[C@@H]1C(=O)N2C(C(=O)[O-])=C(C[n+]3ccccc3)CS[C@H]12)c1csc(N)n1)C(=O)O [ceftazidime, [6R -[6α,7β(Z)]]-1-[[7-[[(2-amino-4-thiazolyl)[(1-carboxy-1-methylethoxy)imino]acetyl]amino]-2-carboxy-8-oxo-5-thia-1-azabicyclo[4.2.0]oct-2-en-3-yl]methyl]pyridinium hydroxide inner salt]
MIC (B. fragilis [1]; Bacteroides fragilis, ceftazidime alone): ~7 µg/mL | MIC ([2]; ceftazidime alone): ~7 µg/mL | selection of cells showing high-level resistance to ceftazidime (E. cloacae; ceftazidime alone at 0.5 MIC): rapidly selected

O=C([O-])C1=CS[C@@H]2/C(=C\c3cn4c(n3)SCC4)C(=O)N12.[Na+] [Example 1, Sodium (5R)-6-[(Z)-(2,3-Dihydroimidazo[2,1-b]thiazol-6-yl) Methylene]-penem-3-carboxylate]
MIC of ceftazidime (B. fragilis [1]; [10]): around 4 μg/ml | MIC of ceftazidime [2, 10]: around 2 μg/ml | rate of emergence of resistant isolates (E. cloacae; ceftazidime at 0.5 MIC plus Example 1): reduced the rate of emergence of resistant isolates dramatically | final level of resistance (E. cloacae; combination of ceftazidime and Example 1 versus ceftazidime alone): much lower than that observed with ceftazidime alone | synergy with cefotaxime (B. fragilis [3]): Effective synergy | synergy with cefotaxime [4]: Effective synergy | MIC of cefotaxime ([5]; Example 1 at concentrations as low as 0.25 μg/ml): below 1 μg/ml | cefotaxime MIC [6]: below 1 μg/ml | protection of infected animals ([7]; cefotaxime plus Example 1 compared with cefotaxime alone, E. cloacae (4593)): consistent protection | protection of infected animals ([8]; cefotaxime plus Example 1 compared with cefotaxime alone, K.pneumoniae (520)): consistent protection | effectiveness of amoxycillin in protecting animals [9]: markedly more effective | serum half life (serum half life): advantageously long

CO/N=C(\C(=O)N[C@@H]1C(=O)N2C(C(=O)O)=C(COC(C)=O)CS[C@H]12)c1csc(N)n1 [Cefotaxime]
MIC ([5]; Klebsiella pneumoniae, in the absence of Example 1): 64 µg/mL | Cefotaxime CD50 ([7]; cefotaxime alone, s.c. at 1 and 5 h post-infection, E. cloacae 4593): 240 mg/kg and 400 mg/kg | Cefotaxime CD50 ([8]; cefotaxime alone, s.c. at 1 and 5 h post-infection, K. pneumoniae): 54 mg/kg and 42 mg/kg

Source: patent US6472383B1, “Pharmaceutical formulations” (priority 1994, dated 2002)
